pIC50: −log10 of the molar value.
Tests used:
[1] = molecular target: ERβ (Homo sapiens, UniProt Q92731); assay: ER affinity assay (ERβ), [3H]-E2 displacement; details: Relative Binding Affinity, E2 = 100%; recombinant human protein
Protocol: (§1) The binding affinity of selected compounds to the ERα and ERβ was determined according to Zimmermann et al. (Zimmermann, J. et al., 3. Steroid Biochem. Mol. Biol., 94:57-66 (2005)) using recombinant human proteins. Briefly, 0.25 μM of ERα or ERβ, respectively, were incubated with [^3H]-E2 (10 nM) and test compound for 1 h at room temperature. The potential inhibitors were dissolved in DMSO (5% final concentration). Evaluation of non-specific-binding was performed with diethylstilbestrol (10 μM). After incubation, ligand-receptor complexes were selectively bound to hydroxyapatite (5 g/60 ml TE-buffer). The formed complex was separated, washed and resuspended in ethanol. For radiodetection, scintillator cocktail (Quickszint 212, Zinsser Analytic, Frankfurt) was added and the samples were measured in a liquid scintillation counter (Rack Beta Primo 1209, Wallac, Turku). […] The compound concentration to displace 50% of the receptor bound [^3H]-E2 were determined. Unlabelled E2 was used as a reference. For determination of the relative binding affinity (RBA) the ratio was calculated according to the following equation: […]
(§2) After the assay was established and validated a modification was made to increase throughput. […] Results were reported as RBA ranges.

[2] = molecular target: T1, 17β-HSD1 (Homo sapiens, UniProt P14061); assay: Inhibition of 17β-HSD1 in cell-free assay; assay type: biochemical; details: human placenta, cytosolic fraction, substrate E1 500 nM, cofactor NADH 500 μM; for % inhibition 17β-HSD1 / inhibition at 1 µM: inhibitor concentration 1 μM
T1 construct: For the partial purification of 17β-HSD1, the cytosolic fraction was precipitated with ammonium sulfate; from tissue; host or cells: human placenta, cytosolic fraction
T1 sequence (P14061 1-328): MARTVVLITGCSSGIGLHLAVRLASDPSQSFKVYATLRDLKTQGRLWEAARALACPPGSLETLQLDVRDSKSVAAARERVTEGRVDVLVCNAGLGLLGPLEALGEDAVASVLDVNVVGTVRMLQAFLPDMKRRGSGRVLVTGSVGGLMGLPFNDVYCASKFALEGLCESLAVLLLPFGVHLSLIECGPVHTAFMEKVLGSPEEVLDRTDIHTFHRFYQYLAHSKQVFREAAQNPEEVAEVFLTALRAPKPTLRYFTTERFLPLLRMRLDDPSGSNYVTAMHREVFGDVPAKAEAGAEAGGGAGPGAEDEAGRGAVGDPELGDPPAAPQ
Protocol: (§3) Fresh human placenta was homogenized. Cytosolic and microsomal fractions were separated by centrifugation at 1000 g, 10000 g and 150000 g. 17β-HSD2 was obtained directly from the microsomal fraction. For the partial purification of 17β-HSD1, the cytosolic fraction was precipitated with ammonium sulfate. Aliquots containing 17β-HSD1 or 17β-HSD2 were stored frozen.
The 17β-HSD1 inhibition assay was performed similarly to the 17β-HSD2 test. The cytosolic fraction was incubated with NADH [500 μM], test compound and a mixture of unlabelled- and [^3H]-E1 (final concentration: 500 nM, 0.15 μCi) for 10 min at 37° C. Further treatment of the samples and HPLC separation was carried out as mentioned above for 17β-HSD2.

[3] = molecular target: T2, ERα (Homo sapiens, UniProt P03372); assay: ER affinity assay (ERα), [3H]-E2 displacement; details: Relative Binding Affinity, E2 = 100%; recombinant human protein
T2 sequence (P03372 1-595): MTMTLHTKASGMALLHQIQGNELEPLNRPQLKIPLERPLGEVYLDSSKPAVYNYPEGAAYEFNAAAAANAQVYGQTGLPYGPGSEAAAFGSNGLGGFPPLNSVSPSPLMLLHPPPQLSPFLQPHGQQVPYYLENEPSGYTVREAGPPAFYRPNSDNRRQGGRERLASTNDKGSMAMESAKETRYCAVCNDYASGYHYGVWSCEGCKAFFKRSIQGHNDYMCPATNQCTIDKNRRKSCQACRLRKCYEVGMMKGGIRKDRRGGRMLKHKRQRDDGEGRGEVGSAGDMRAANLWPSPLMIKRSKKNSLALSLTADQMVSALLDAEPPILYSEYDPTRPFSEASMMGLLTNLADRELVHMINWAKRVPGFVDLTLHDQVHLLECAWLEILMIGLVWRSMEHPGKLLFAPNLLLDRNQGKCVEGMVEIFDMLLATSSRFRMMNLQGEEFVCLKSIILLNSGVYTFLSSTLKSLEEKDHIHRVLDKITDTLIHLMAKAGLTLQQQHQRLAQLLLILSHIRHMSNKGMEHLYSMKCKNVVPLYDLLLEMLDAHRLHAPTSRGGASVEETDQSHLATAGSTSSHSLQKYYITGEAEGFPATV
Protocol: as §1, §2

[4] = molecular target: T3, 17β-HSD2 (Homo sapiens, UniProt P37059); assay: Inhibition of 17β-HSD2 in cell-free assay; assay type: biochemical; design: 17β-HSD2 was obtained directly from the microsomal fraction; from tissue; host or cells: human placenta, microsomal fraction; details: human placenta, microsomal fraction, substrate E2 500 nM, cofactor NAD+ 1500 μM
T3 sequence (P37059 1-387): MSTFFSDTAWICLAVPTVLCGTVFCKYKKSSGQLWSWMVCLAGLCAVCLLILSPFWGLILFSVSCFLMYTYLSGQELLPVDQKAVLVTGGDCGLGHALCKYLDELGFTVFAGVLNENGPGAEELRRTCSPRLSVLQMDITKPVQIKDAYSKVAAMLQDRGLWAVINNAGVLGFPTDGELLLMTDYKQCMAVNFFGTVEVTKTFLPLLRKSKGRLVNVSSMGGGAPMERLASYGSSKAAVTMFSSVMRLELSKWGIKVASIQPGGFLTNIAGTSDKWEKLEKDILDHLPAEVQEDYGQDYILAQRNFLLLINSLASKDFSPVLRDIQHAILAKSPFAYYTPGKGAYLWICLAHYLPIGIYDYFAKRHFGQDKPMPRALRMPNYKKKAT
Protocol: as §3
Inhibitor stock solutions were prepared in DMSO. Final concentration of DMSO was adjusted to 1% in all samples. The enzymatic reaction was started by addition of a mixture of unlabelled- and [^3H]-E2 (final concentration: 500 nM, 0.11 μCi). After 20 min at 37° C., the incubation was stopped with HgCl2 and the mixture was extracted with ether. After evaporation, the steroids were dissolved in acetonitrile. E1 and E2 were separated using acetonitrile/water (45:55) as mobile phase in a C18 RP chromatography column (Nucleodur C18, 3 μm, Macherey-Nagel, Duren) connected to a HPLC-system (Agilent 1100 Series, Agilent Technologies, Waldbronn). Detection and quantification of the steroids were performed using a radioflow detector (Berthold Technologies, Bad Wildbad). The conversion rate was calculated according to the following equation: […]

ERβ, sequence (Q92731 whole entry): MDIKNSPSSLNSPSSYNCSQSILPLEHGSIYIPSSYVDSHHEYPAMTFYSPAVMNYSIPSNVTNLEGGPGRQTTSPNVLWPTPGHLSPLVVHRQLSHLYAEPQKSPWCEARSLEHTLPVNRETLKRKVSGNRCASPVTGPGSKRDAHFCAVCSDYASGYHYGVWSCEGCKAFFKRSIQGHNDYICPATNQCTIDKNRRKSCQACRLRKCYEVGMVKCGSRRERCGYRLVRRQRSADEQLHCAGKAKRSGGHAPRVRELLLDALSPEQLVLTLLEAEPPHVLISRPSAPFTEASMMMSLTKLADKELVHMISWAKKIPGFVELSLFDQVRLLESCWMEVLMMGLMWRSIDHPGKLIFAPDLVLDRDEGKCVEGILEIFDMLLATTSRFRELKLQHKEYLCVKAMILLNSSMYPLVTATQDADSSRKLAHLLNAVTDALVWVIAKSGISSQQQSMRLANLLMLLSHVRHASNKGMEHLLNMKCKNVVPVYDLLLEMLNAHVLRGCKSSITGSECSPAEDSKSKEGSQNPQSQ

Row | Compound | ERβ RBA (%) [1] [%] | pIC50 [2] | ERα RBA (%) [3] [%] | pIC50 [4] | % inhibition 17β-HSD1 [2] | inhibition at 1 µM ([4]; inhibitor concentration 1 μM) [%] | inhibition at 1 µM [2] [%] | % inhibition 17β-HSD2 ([4]; inhibitor concentration 1 μM)
1 | Cc1cccc(-c2ccc(C(=O)N(C)Cc3cccc(O)c3)s2)c1 [compound 46, N-(3-Hydroxybenzyl)-N-methyl-5-m-tolylthiophene-2-carboxamide] | <0.1 | 4.97 | <0.1 | 6.79 | – | – | – | –
2 | COc1cccc(-c2cccc(C(=O)N(C)c3cccc(OC)c3)c2)c1 [compound 11, 3′-Methoxy-N-(3-methoxyphenyl)-N-methylbiphenyl-3-carboxamide] | <0.1 | < 4.22 | <0.1 | 6.29 | – | – | – | –
3 | CN(Cc1cccc(O)c1)C(=O)c1ccc(-c2ccc(O)cc2)s1 [compound 26, N-(3-Hydroxybenzyl)-5-(4-hydroxyphenyl)-N-methylthiophene-2-carboxamide] | <0.1 | 5.29 | <0.1 | 6.47 | – | – | – | –
4 | CN(Cc1cccc(O)c1)C(=O)c1ccc(-c2cccc(N(C)C)c2)s1 [compound 40, 5-(3-(Dimethylamino)phenyl)-N-(3-hydroxybenzyl)-N-methylthiophene-2-carboxamide] | <0.1 | 4.73 | <0.1 | 6.61 | – | – | – | –
5 | COc1cccc(N(C)C(=O)c2ccc(-c3cccc(N(C)C)c3)s2)c1 [compound 58, 5-(3-(Dimethylamino)phenyl)-N-(3-methoxyphenyl)-N-methylthiophene-2-carboxamide] | <0.1 | 4.98 | <0.1 | 6.77 | – | – | – | –
6 | COc1cccc(CN(C)C(=O)c2ccc(-c3cccc(C)c3)cc2)c1 [compound 3, N-(3-Methoxybenzyl)-N,3′-dimethylbiphenyl-4-carboxamide] | <0.1 | < 4.00 | <0.1 | 6.58 | – | – | – | –
7 | COc1cccc(CN(C)C(=O)c2ccc(-c3ccccc3OC)s2)c1 [compound 27, N-(3-Methoxybenzyl)-5-(2-methoxyphenyl)-N-methylthiophene-2-carboxamide] | – | – | – | – | n.i.^e | 48 | – | –
8 | CN(CCc1cccc(O)c1)C(=O)c1ccc(-c2ccccc2)s1 [compound 20, N-(3-Hydroxyphenethyl)-N-methyl-5-phenylthiophene-2-carboxamide] | – | – | – | – | n.i.^e | 11 | – | –
9 | COc1ccc(-c2cccc(C(=O)N(C)Cc3cccc(OC)c3)c2)cc1 [compound 5, 4′-Methoxy-N-(3-methoxybenzyl)-N-methylbiphenyl-3-carboxamide] | – | – | – | – | n.i.^e | 11 | – | –
10 | COc1cccc(N(C)C(=O)c2ccc(-c3ccc(OC)c(F)c3)s2)c1 [compound 61, 5-(3-Fluoro-4-methoxyphenyl)-N-(3-methoxyphenyl)-N-methylthiophene-2-carboxamide] | <0.1 | < 4.40 | <0.1 | 6.62 | – | – | – | –
11 | COc1cccc(CCN(C)C(=O)c2ccc(-c3ccccc3)s2)c1 [compound 19, N-(3-Methoxyphenethyl)-N-methyl-5-phenylthiophene-2-carboxamide] | – | – | – | – | – | 18 | 11 | –
12 | COc1cccc(-c2ccc(C(=O)N(C)Cc3cccc(O)c3)s2)c1F [compound 43, 5-(2-Fluoro-3-methoxyphenyl)-N-(3-hydroxybenzyl)-N-methylthiophene-2-carboxamide] | <0.1 | 5.35 | <0.1 | 7.21 | – | – | – | –
13 | COc1cccc(-c2ccc(C(=O)N(C)c3cccc(C(F)(F)F)c3)s2)c1 [compound 75, 5-(3-Methoxyphenyl)-N-methyl-N-(3-(trifluoromethyl)phenyl)thiophene-2-carboxamide] | <0.1 | 4.91 | <0.1 | 6.14 | – | – | – | –
14 | CN(Cc1cccc(O)c1)C(=O)c1cccc(-c2cccc(O)c2)c1 [compound 8, 3′-Hydroxy-N-(3-hydroxybenzyl)-N-methylbiphenyl-3-carboxamide] | – | 5.42 | – | 6.32 | – | – | – | –
15 | COc1cccc(N(C)C(=O)c2ccc(-c3ccc(OC)cc3OC)s2)c1 [compound 57, 5-(2,4-Dimethoxyphenyl)-N-(3-methoxyphenyl)-N-methylthiophene-2-carboxamide] | – | 5.72 | – | 6.50 | – | – | – | –
16 | CN(CCc1cccc(O)c1)C(=O)c1ccc(-c2cccc(F)c2)s1 [compound 22, 5-(3-Fluorophenyl)-N-(3-hydroxyphenethyl)-N-methylthiophene-2-carboxamide] | – | – | – | – | – | 17 | 12 | –
17 | CN(CCc1cccc(O)c1)C(=O)c1ccc(-c2cccc(O)c2)s1 [compound 18, N-(3-Hydroxyphenethyl)-5-(3-hydroxyphenyl)-N-methylthiophene-2-carboxamide] | – | – | – | – | – | 37 | 23 | –
18 | CN(Cc1cccc(O)c1)C(=O)c1ccc(-c2cccc(F)c2)s1 [compound 41, 5-(3-Fluorophenyl)-N-(3-hydroxybenzyl)-N-methylthiophene-2-carboxamide] | – | 5.50 | – | 6.49 | – | – | – | –
19 | COc1cccc(CCN(C)C(=O)c2ccc(-c3cccc(F)c3)s2)c1 [compound 21, 5-(3-Fluorophenyl)-N-(3-methoxyphenethyl)-N-methylthiophene-2-carboxamide] | – | – | – | – | n.i.^e | – | – | n.i.^e
20 | COc1cccc(N(C)C(=O)c2ccc(-c3ccc(F)c(OC)c3)s2)c1 [compound 62, 5-(4-Fluoro-3-methoxyphenyl)-N-(3-methoxyphenyl)-N-methylthiophene-2-carboxamide] | – | < 4.00 | – | 6.14 | – | – | – | –

Source: patent US20140057953A1, “BIARYL DERIVATIVES AS SELECTIVE 17BETA-HYDROXYSTEROID DEHYDROGENASE TYPE 2 INHIBITORS” (priority 2011, published 2014)
